Assay results as given in patent US20210300924A1, “5-[6-[[3-(4,5,6,7-TETRAHYDROPYRAZOLO[4,3-C]PYRIDIN-1-YL)AZETIDIN-1-YL]METHYL]MORPHOLIN-4-YL]QUINOLINE-8-CARBONITRILE DERIVATIVES AND SIMILAR COMPOUNDS AS TLR7-9 ANTAGONISTS FOR TREATING SYSTEMIC LUPUS ERYTHEMATOSUS” (Hoffmann-La Roche Inc., priority 2018, published 2021).
pIC50: −log10 of the molar value. Values belong to the compound of their own block, whether it stands above or below them.

How the values were obtained:
hERG channel = biological target: T1, hERG channel (Homo sapiens, UniProt Q12809); assay: hERG channel inhibition assay (patch-clamp, CHOhERG cells); format: cell-based; conditions: for pIC50 / IC20: CHOhERG cells, whole-cell patch-clamp; for IC20: human, CHO cells stably expressing hERG (CHOhERG cells); for hERG IC20/TLR7 IC50 / hERG IC20/TLR8 IC50 / hERG IC20/TLR9 IC50: safety ratio, >30 suggests sufficient window
T1 construct: expressed in transfected cells; host or cells: CHO (Chinese hamster ovary), CHOhERG
Method: hERG Channel Inhibition Assay:
The hERG K^+ channels were cloned in humans and stably expressed in a CHO (Chinese hamster ovary) cell line. CHOhERG cells were used for patch-clamp (voltage-clamp, whole-cell) experiments. Cells were stimulated by a voltage pattern to activate hERG channels and conduct hERG currents (rapid delayed outward rectifier potassium current of the hERG channel). After the cells were stabilized for a few minutes, the amplitude and kinetics of IKhERG were recorded at a stimulation frequency of 0.1 Hz (6 bpm). Thereafter, the test compound was added to the preparation at increasing concentrations. For each concentration, an attempt was made to reach a steady-state effect, usually, this was achieved within 3-10 min at which time the next highest concentration was applied. The amplitude and kinetics of IKhERG are recorded in each concentration of the drug which were compared to the control values (taken as 100%). (references: Redfern W S, Carlsson L, Davis A S, Lynch W G, MacKenzie I, Palethorpe S, Siegl P K, Strang I, Sullivan A T, Wallis R, Camm A J, Hammond T G. 2003; Relationships between preclinical cardiac electrophysiology, clinical QT interval prolongation and torsade de pointes for a broad range of drugs: evidence for a provisional safety margin in drug development. Cardiovasc. Res. 58:32-45, Sanguinetti MC, Tristani-Firouzi M. 2006; hERG potassium channels and cardiac arrhythmia. Nature 440:463-469, Webster R, Leishman D, Walker D. 2002; Towards a drug concentration effect relationship for QT prolongation and torsades de pointes. Curr. Opin. Drug Discov. Devel. 5:116-26).

TLR9 = biological target: T2, TLR9 (Homo sapiens, UniProt Q9NR96); assay: Human PBMC cell-based assay; design: endogenous in cells; host or cells: human PBMC from healthy donor whole blood; conditions: CpG ODN 2216 stimulation, overnight, cytokine readout, read-out: hPBMC/TLR9 IC50
T2 sequence (Q9NR96 26-1032): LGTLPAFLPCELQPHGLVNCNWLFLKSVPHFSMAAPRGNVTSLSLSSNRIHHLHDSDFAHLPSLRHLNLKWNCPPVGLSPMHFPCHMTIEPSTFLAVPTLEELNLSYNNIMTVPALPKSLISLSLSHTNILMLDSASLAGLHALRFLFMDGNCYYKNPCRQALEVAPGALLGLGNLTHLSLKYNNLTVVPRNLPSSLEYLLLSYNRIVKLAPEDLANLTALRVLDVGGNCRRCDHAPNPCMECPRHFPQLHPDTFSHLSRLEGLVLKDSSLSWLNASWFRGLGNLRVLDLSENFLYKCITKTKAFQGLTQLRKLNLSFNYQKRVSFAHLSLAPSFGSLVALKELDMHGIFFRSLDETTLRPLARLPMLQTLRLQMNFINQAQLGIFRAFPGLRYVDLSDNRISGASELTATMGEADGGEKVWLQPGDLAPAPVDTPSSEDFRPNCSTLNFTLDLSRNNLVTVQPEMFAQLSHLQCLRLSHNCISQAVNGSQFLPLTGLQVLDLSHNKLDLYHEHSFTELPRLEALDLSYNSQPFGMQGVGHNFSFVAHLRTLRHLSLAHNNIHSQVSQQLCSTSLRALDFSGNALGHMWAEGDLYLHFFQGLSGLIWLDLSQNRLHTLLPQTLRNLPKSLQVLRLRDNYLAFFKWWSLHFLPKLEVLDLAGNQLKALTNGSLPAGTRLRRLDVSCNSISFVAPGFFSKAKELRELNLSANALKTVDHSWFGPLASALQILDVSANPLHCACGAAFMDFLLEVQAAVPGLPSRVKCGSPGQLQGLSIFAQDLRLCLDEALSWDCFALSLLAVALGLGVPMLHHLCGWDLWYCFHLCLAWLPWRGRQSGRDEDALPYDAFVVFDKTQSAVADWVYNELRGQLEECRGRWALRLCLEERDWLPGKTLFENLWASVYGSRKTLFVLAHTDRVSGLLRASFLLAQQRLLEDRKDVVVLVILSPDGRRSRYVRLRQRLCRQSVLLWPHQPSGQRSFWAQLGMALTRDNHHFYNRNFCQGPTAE
Text: Human PBMC Cell-Based Assay
Unlike the HEK reporter cell lines, human peripheral blood mononuclear cell (PBMC) represents primary human immune cells in blood mainly consisting of lymphocytes, monocytes, and dendritic cells. These cells express TLR7, TLR8, or TLR9, and therefore are natural responders to respective ligand stimulation. Upon activation of these TLRs, PBMCs secrete similar cytokines and chemokines in vitro and in vivo, and therefore the in vitro potency of a TLR7/8/9 antagonist in human PBMC is readily translatable to its pharmacodynamics response in vivo.
Human peripheral blood mononuclear cells (PBMC) were isolated from freshly-drawn lithium-heparinized (Lithium Heparin Plus blood Collection tube, BD Vacutainer®) healthy donor whole blood by density gradient (Ficoll-Paque™ PLUS, GE Healthcare life Sciences). Briefly, […] was diluted with 25 mL PBS (without Ca^2+, Mg^2+) in a 50 mL conical tube with porous barrier (Leucosep tube, Greiner bio-one), where 15.5 mL Ficoll-Paque was under laid after spinning. Tubes were centrifuged for 20 minutes at 800×g (1946 rpm) with the brake in the off position, and PBMC were collected from the buffy coat. Cells were then washed twice in PBS, and red blood cells were lysed by suspension in 2 mL (Red Blood Cell Lysis Buffer, Alfa Aesar) for 5-10 minutes at room temperature. After a final wash in PBS, PBMC were resuspended at a final concentration of 2×10^6 cells/mL in RPMI-1640 media with GlutaMAX™ (Gibco) supplemented with 10% Fetal Bovine Serum (Sigma) and plated at 150 μL/well (3×10^5 cells/well) in tissue culture treated round bottom 96-well plates (Corning Incorporated). Antagonist compounds (compounds of this invention) solubilized and serial diluted in 100% DMSO were added in duplicate to cells to yield a final concentration of 1% DMSO (v/v). PBMC were incubated with antagonist compounds for 30 minutes at 37° C., 5% CO2 before adding various TLR agonist reagents in 48 μL complete media per well as follows (final concentrations indicated): CpG ODN 2216 (InvivoGen) at […] for TLR9, ORN 06/LyoVec (InvivoGen) at 1 μg/mL for TLR8 and R848 (InvivoGen) at 1 μg/mL for TLR7 and TLR8. PBMC were incubated overnight at 37° C. with 5% CO2. Cell culture supernatants were collected, and levels of various human cytokines were assessed by Luminex assay (ProcartaPlex™ Multiplex Immunoassay, Invitrogen) or ELISA procedure according to the manufacturer's recommended protocol (eBioscience, ThermoFisher Scientific). Viability of the cells was also checked with Cell Viability Assay (CellTiter Glo® Luminescent Cell Viability Assay, Promega).

T1 sequence (Q12809 whole entry): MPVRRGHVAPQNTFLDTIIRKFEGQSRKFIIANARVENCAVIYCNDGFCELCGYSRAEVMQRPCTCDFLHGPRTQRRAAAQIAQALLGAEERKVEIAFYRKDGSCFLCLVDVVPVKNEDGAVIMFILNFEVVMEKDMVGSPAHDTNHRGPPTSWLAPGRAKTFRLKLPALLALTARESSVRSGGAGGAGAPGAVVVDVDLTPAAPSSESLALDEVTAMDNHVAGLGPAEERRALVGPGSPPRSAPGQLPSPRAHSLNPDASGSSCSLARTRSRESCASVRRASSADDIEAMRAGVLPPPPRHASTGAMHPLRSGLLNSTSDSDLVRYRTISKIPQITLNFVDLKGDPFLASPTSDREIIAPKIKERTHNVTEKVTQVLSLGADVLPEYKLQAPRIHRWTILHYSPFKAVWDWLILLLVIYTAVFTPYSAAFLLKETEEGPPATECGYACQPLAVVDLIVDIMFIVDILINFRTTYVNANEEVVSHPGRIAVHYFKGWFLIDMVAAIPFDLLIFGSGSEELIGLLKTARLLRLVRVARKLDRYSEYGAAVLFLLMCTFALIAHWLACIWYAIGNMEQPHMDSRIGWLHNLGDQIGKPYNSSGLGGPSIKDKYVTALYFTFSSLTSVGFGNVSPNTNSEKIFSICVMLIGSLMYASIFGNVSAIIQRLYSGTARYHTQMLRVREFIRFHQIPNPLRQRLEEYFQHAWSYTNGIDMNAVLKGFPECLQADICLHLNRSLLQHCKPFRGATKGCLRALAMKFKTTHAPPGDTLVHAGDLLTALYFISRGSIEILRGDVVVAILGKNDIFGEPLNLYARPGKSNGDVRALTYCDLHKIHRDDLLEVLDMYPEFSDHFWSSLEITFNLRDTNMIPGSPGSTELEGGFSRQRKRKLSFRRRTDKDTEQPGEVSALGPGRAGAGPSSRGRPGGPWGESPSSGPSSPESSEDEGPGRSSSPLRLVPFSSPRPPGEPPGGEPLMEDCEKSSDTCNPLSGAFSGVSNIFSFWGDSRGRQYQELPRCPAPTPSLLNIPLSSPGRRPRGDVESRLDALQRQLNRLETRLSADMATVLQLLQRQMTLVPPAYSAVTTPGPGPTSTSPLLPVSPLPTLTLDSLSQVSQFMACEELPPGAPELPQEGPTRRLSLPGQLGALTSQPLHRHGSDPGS

pIC50 (TLR9): 6.94
SMILES: C[C@@H]1CN(c2ccc(C#N)c3ncccc23)C[C@H](CN2CC(n3cc4c(n3)CN[C@@H](C)C4)C2)O1 (single isomer, unassigned) [Example 29]
pIC50 (hERG channel): < 4.70
IC20 (hERG channel): > 10 µM
hERG IC20/TLR7 IC50 (hERG channel): >1265.8
hERG IC20/TLR8 IC50 (hERG channel): >877.2
hERG IC20/TLR9 IC50 (hERG channel): >138.3

pIC50 (TLR9): 6.79
SMILES: C[C@@H]1Cc2cn(C3CN(C[C@H]4CN(c5ccc(C#N)c6ncccc56)C[C@@H](C)O4)C3)nc2CN1 (single isomer, unassigned) [Example 30]
pIC50 (hERG channel): < 4.70
IC20 (hERG channel): > 10 µM
hERG IC20/TLR7 IC50 (hERG channel): >2083.3
hERG IC20/TLR8 IC50 (hERG channel): >735.3
hERG IC20/TLR9 IC50 (hERG channel): >175.7

pIC50 (TLR9): 7.14
SMILES: C[C@@H]1CN(c2ccc(C#N)c3ncccc23)C[C@H](CN2CC(n3cc4c(n3)[C@@H](C)NCC4)C2)O1 (single isomer, unassigned) [Example 33]
pIC50 (hERG channel): < 4.70
IC20 (hERG channel): > 10 µM
hERG IC20/TLR7 IC50 (hERG channel): >1369.9
hERG IC20/TLR8 IC50 (hERG channel): >763.4
hERG IC20/TLR9 IC50 (hERG channel): >291.5

pIC50 (TLR9): 6.93
SMILES: C[C@@H]1CN(c2ccc(C#N)c3ncccc23)C[C@H](CN2CC(n3ncc4c3CNCC4)C2)O1 [Example 3, 5-[(2R,6S)-2-methyl-6-[[3-(4,5,6,7-tetrahydropyrazolo[3,4-c]pyridin-1-yl)azetidin-1-yl]methyl]morpholin-4-yl]quinoline-8-carbonitrile]
pIC50 (hERG channel): < 4.70
IC20 (hERG channel): > 10 µM
hERG IC20/TLR7 IC50 (hERG channel): >2901.3
hERG IC20/TLR8 IC50 (hERG channel): >1739.2
hERG IC20/TLR9 IC50 (hERG channel): >194.9

pIC50 (TLR9): 6.70
SMILES: C[C@@H]1CN(c2ccc(C#N)c3ncccc23)C[C@H](CN2CC(n3cc4c(n3)CNCC4)C2)O1 [Example 4, 5-[(2R,6S)-2-methyl-6-[[3-(4,5,6,7-tetrahydropyrazolo[3,4-c]pyridin-2-yl)azetidin-1-yl]methyl]morpholin-4-yl]quinoline-8-carbonitrile]
pIC50 (hERG channel): < 4.70
IC20 (hERG channel): > 10 µM
hERG IC20/TLR7 IC50 (hERG channel): >1136.4
hERG IC20/TLR8 IC50 (hERG channel): >1162.8
hERG IC20/TLR9 IC50 (hERG channel): >314.5

pIC50 (TLR9): 6.50
SMILES: C[C@@H]1CN(c2ccc(C#N)c3ncccc23)C[C@H](CN2CC(n3cc4c(n3)CN(C)CC4)C2)O1 [Example 5, 5-[(2R,6S)-2-methyl-6-[[3-(6-methyl-5,7-dihydro-4H-pyrazolo[3,4-c]pyridin-2-yl)azetidin-1-yl]methyl]morpholin-4-yl]quinoline-8-carbonitrile]
pIC50 (hERG channel): < 4.70
IC20 (hERG channel): > 10 µM
hERG IC20/TLR7 IC50 (hERG channel): >2857.1
hERG IC20/TLR8 IC50 (hERG channel): >1653.6
hERG IC20/TLR9 IC50 (hERG channel): >73.1

pIC50 (TLR9): 7.04
SMILES: Cc1nn(C2CN(C[C@H]3CN(c4ccc(C#N)c5ncccc45)C[C@@H](C)O3)C2)c2c1CNCC2 [Example 12, 5-[(2R,6S)-2-methyl-6-[[3-(3-methyl-4,5,6,7-tetrahydropyrazolo[4,3-c]pyridin-1-yl)azetidin-1-yl]methyl]morpholin-4-yl]quinoline-8-carbonitrile]
pIC50 (hERG channel): < 4.70
IC20 (hERG channel): > 10 µM
hERG IC20/TLR7 IC50 (hERG channel): >666.7
hERG IC20/TLR8 IC50 (hERG channel): >226.8
hERG IC20/TLR9 IC50 (hERG channel): >127.6

pIC50 (TLR9): 6.92
SMILES: Cc1c2c(nn1C1CN(C[C@H]3CN(c4ccc(C#N)c5ncccc45)C[C@@H](C)O3)C1)CCNC2 [Example 13, 5-[(2R,6S)-2-methyl-6-[[3-(3-methyl-4,5,6,7-tetrahydropyrazolo[4,3-c]pyridin-2-yl)azetidin-1-yl]methyl]morpholin-4-yl]quinoline-8-carbonitrile]
pIC50 (hERG channel): < 4.70
IC20 (hERG channel): > 10 µM
hERG IC20/TLR7 IC50 (hERG channel): >694.4
hERG IC20/TLR8 IC50 (hERG channel): >222.2
hERG IC20/TLR9 IC50 (hERG channel): >84.5

pIC50 (TLR9): 7.08
SMILES: C[C@@H]1Cc2c(cnn2C2CN(C[C@H]3CN(c4ccc(C#N)c5ncccc45)C[C@@H](C)O3)C2)CN1 [Example 16, 5-[(2R,6S)-2-methyl-6-[[3-[(6R)-6-methyl-4,5,6,7-tetrahydropyrazolo[4,3-c]pyridin-1-yl]azetidin-1-yl]methyl]morpholin-4-yl]quinoline-8-carbonitrile]
pIC50 (hERG channel): < 4.70
IC20 (hERG channel): > 10 µM
hERG IC20/TLR7 IC50 (hERG channel): >2381.0
hERG IC20/TLR8 IC50 (hERG channel): >641.0
hERG IC20/TLR9 IC50 (hERG channel): >129.0

pIC50 (TLR9): 6.84
SMILES: C[C@@H]1CN(c2ccc(C#N)c3ncccc23)C[C@H](CN2CC(n3cc4c(n3)CCN[C@H]4C)C2)O1 [Example 23, 5-[(2R,6S)-2-methyl-6-[[3-[(4S)-4-methyl-4,5,6,7-tetrahydropyrazolo[4,3-c]pyridin-2-yl]azetidin-1-yl]methyl]morpholin-4-yl]quinoline-8-carbonitrile]
